US9663519B2, “Compounds useful as inhibitors of ATR kinase” (Vertex Pharmaceuticals Incorporated, priority 2013, dated 2017)
pKi: −log10 of the molar value.

Key:
full-length ATR = full-length ATR (Homo sapiens (Human), UniProt Q13535); assay: ATR Inhibition Assay (radioactive-phosphate incorporation); assay type: biochemical; conditions: Ki(app); 5 nM full-length ATR, 10 μM ATP, 25° C.
Protocol: Compounds were screened for their ability to inhibit ATR kinase using a radioactive-phosphate incorporation assay. Assays were carried out in a mixture of 50 mM Tris/HCl (pH 7.5), 10 mM MgCl2 and 1 mM DTT. Final substrate concentrations were 10 μM [γ-33P]ATP (3 mCi 33P ATP/mmol ATP, Perkin Elmer) and 800 μM target peptide (ASELPASQPQPFSAKKK (SEQ. ID NO: 1)).
Assays were carried out at 25° C. in the presence of 5 nM full-length ATR. An assay stock buffer solution was prepared containing all of the reagents listed above, with the exception of ATP and the test compound of interest. 13.5 μL of the stock solution was placed in a 96 well plate followed by addition of 2 μL of DMSO stock containing serial dilutions of the test compound (typically starting from a final concentration of 15 μM with 3-fold serial dilutions) in duplicate (final DMSO concentration 7%). The plate was pre-incubated for 10 minutes at 25° C. and the reaction initiated by addition of 15 μL [γ-33P]ATP (final concentration 10 μM).
The reaction was stopped after […] by the addition of 30 μL 0.1M phosphoric acid containing 2 mM ATP. A multiscreen phosphocellulose filter 96-well plate (Millipore, Cat no. MAPHN0B50) was pretreated with 100 μL 0.2M phosphoric acid prior to the addition of 45 μL of the stopped assay mixture. The plate was washed with 5×200 μL 0.2M phosphoric acid. After drying, 100 μL Optiphase ‘SuperMix’ liquid scintillation cocktail (Perkin Elmer) was added to the well prior to scintillation counting (1450 Microbeta Liquid Scintillation Counter, Wallac).
After removing mean background values for all of the data points, Ki(app) data were calculated from non-linear regression analysis of the initial rate data using the Prism software package (GraphPad Prism version 3.0cx for Macintosh, GraphPad Software, San Diego Calif., USA).

[1] = test system: HCT116 colorectal cancer cells; assay: Cisplatin Sensitization Assay (96 h cell viability MTS); assay type: cell-based; conditions: Cisplatin sensitization value: concentration of compound required to reduce the IC50 of Cisplatin alone by at least 3-fold; HCT116, 96 h MTS
Protocol: Compounds can be screened for their ability to sensitize HCT116 colorectal cancer cells to Cisplatin using a 96 h cell viability (MTS) assay. […] Compounds and Cisplatin are then both added simultaneously to the cell media in 2-fold serial dilutions from a top final concentration of 10 μM as a full matrix of concentrations in a final cell volume of 200 μl, and the cells are then incubated at 37° C. in 5% CO2. After 96 h, 40 μl of MTS reagent (Promega G358a) is added to each well and the cells are incubated for 1 h at 37° C. in 5% CO2. Finally, absorbance is measured at 490 nm using a SpectraMax Plus 384 reader (Molecular Devices) and the concentration of compound required to reduce the IC50 of Cisplatin alone by at least 3-fold (to 1 decimal place) can be reported.

Chain of full-length ATR (Q13535 whole entry): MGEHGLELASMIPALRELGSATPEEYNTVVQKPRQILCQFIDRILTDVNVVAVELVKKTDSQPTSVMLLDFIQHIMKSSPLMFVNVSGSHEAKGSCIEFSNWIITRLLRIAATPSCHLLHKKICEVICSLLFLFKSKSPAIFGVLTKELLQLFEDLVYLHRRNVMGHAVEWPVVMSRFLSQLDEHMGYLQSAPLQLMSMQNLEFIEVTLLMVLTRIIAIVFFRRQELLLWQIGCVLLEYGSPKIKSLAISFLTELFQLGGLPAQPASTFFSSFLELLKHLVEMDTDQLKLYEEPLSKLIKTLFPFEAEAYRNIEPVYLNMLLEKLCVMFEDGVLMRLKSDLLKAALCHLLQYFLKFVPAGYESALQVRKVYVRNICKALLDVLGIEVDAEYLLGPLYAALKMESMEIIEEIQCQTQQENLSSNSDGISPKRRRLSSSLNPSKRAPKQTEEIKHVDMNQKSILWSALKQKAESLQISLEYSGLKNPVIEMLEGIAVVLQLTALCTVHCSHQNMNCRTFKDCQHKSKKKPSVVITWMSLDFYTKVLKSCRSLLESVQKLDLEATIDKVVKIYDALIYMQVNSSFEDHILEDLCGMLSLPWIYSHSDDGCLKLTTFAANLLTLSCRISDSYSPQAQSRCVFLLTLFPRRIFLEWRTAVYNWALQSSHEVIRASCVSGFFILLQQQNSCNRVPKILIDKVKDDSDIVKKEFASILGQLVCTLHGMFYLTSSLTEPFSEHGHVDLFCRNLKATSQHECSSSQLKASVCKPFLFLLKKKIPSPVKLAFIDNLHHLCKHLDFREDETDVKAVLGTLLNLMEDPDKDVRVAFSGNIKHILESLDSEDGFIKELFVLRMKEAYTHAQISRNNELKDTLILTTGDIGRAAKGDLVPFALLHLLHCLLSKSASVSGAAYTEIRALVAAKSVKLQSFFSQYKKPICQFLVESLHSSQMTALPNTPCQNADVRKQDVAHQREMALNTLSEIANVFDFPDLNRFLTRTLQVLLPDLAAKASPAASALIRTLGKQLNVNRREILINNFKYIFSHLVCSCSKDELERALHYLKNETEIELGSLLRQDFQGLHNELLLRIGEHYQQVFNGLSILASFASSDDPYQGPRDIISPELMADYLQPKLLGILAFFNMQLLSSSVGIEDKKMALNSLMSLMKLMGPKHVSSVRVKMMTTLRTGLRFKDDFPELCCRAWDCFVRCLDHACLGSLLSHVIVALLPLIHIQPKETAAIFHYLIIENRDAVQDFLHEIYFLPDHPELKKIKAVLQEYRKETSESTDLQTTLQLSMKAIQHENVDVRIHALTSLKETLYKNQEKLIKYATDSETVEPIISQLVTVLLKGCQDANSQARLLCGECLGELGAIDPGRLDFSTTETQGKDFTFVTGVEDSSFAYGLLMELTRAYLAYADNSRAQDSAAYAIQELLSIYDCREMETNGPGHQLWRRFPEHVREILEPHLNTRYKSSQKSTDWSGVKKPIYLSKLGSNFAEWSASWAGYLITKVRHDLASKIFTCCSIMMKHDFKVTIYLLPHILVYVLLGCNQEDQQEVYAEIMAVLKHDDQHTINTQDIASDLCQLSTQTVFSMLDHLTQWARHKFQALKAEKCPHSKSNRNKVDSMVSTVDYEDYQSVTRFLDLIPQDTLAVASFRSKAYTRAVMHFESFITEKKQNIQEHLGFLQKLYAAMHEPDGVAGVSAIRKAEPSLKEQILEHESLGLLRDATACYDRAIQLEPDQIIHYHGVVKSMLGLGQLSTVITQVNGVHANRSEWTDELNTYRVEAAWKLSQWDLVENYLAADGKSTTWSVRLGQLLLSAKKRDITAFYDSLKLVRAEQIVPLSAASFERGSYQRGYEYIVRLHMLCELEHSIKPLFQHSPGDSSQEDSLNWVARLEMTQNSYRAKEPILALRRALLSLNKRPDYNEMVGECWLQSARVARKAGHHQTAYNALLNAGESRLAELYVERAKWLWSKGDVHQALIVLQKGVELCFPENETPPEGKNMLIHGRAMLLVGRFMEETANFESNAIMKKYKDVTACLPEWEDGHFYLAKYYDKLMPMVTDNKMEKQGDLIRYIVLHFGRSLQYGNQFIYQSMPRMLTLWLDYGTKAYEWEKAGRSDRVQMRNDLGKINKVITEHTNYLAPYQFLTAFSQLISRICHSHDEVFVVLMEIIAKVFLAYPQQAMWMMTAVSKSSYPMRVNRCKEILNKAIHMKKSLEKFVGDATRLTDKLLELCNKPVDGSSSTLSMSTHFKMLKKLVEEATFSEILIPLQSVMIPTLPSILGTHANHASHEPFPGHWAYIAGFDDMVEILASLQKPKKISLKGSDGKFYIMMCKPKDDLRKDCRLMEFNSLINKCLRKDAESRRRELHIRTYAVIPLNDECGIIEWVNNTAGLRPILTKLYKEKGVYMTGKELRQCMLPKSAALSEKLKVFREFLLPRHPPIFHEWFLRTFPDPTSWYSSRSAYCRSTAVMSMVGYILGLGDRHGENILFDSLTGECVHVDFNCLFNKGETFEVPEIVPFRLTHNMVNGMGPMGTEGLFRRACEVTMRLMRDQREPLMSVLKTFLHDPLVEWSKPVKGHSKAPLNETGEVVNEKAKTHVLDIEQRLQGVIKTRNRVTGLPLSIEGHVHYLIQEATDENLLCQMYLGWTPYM

Row | Structure (SMILES) | pKi (full-length ATR) | Synergy with Cisplatin [1]
1 | Cc1nsc(NC(=O)c2c(N)nn3cc4c(nc23)CCN(C2COC2)C4)c1C1CC1 [Compound I-33, 2-amino-N-(4-cyclopropyl-3-methylisothiazol-5-yl)-7-(oxetan-3-yl)-5,6,7,8-tetrahydropyrazolo[1,5-a]pyrido[4,3-d]pyrimidine-3-carboxamide] | 6.00 to 8.00 | +++ (Cisplatin sensitization value of <0.02 μM)
2 | Cc1ccncc1NC(=O)c1c(N)nn2cc3c(nc12)CCNC3 [Compound I-1, 2-amino-N-(4-methylpyridin-3-yl)-5,6,7,8-tetrahydropyrazolo[1,5-a]pyrido[4,3-d]pyrimidine-3-carboxamide] | 6.00 to 8.00 | ++ (Cisplatin sensitization value >0.02 μM but <0.2 μM)
3 | COc1c(Cl)cncc1NC(=O)c1c(N)nn2cc3c(nc12)CCNC3 [Compound I-5, 2-amino-N-(5-chloro-4-methoxypyridin-3-yl)-5,6,7,8-tetrahydropyrazolo[1,5-a]pyrido[4,3-d]pyrimidine-3-carboxamide] | 6.00 to 8.00 | ++ (Cisplatin sensitization value >0.02 μM but <0.2 μM)
4 | CN1CCc2nc3c(C(=O)Nc4cncc(F)c4C4CC4)c(N)nn3cc2C1 [Compound I-12, 2-amino-N-(4-cyclopropyl-5-fluoropyridin-3-yl)-7-methyl-5,6,7,8-tetrahydropyrazolo[1,5-a]pyrido[4,3-d]pyrimidine-3-carboxamide] | 6.00 to 8.00 | ++ (Cisplatin sensitization value >0.02 μM but <0.2 μM)
5 | CN1CCc2nc3c(C(=O)Nc4cnccc4OC4COC4)c(N)nn3cc2C1 [Compound I-14, 2-amino-7-methyl-N-(4-(oxetan-3-yloxy)pyridin-3-yl)-5,6,7,8-tetrahydropyrazolo[1,5-a]pyrido[4,3-d]pyrimidine-3-carboxamide] | 6.00 to 8.00 | ++ (Cisplatin sensitization value >0.02 μM but <0.2 μM)
6 | CN1CCc2nc3c(C(=O)Nc4cnccc4OCC(F)(F)F)c(N)nn3cc2C1 [Compound I-30, 2-amino-7-methyl-N-(4-(2,2,2-trifluoroethoxy)pyridin-3-yl)-5,6,7,8-tetrahydropyrazolo[1,5-a]pyrido[4,3-d]pyrimidine-3-carboxamide] | 6.00 to 8.00 | +++ (Cisplatin sensitization value of <0.02 μM)
7 | Nc1nn2cc3c(nc2c1C(=O)Nc1cncc(F)c1C1CC1)CCN(C1COC1)C3 [Compound I-22, 2-amino-N-(4-cyclopropyl-5-fluoropyridin-3-yl)-7-(oxetan-3-yl)-5,6,7,8-tetrahydropyrazolo[1,5-a]pyrido[4,3-d]pyrimidine-3-carboxamide] | 6.00 to 8.00 | ++ (Cisplatin sensitization value >0.02 μM but <0.2 μM)
8 | COc1ccncc1NC(=O)c1c(N)nn2cc3c(nc12)CCN(C)C3 [Compound I-13, 2-amino-N-(4-methoxypyridin-3-yl)-7-methyl-5,6,7,8-tetrahydropyrazolo[1,5-a]pyrido[4,3-d]pyrimidine-3-carboxamide] | 6.00 to 8.00 | ++ (Cisplatin sensitization value >0.02 μM but <0.2 μM)
9 | COc1cc(Cl)ncc1NC(=O)c1c(N)nn2cc3c(nc12)CCN(C1COC1)C3 [Compound I-25, 2-amino-N-(6-chloro-4-methoxypyridin-3-yl)-7-(oxetan-3-yl)-5,6,7,8-tetrahydropyrazolo[1,5-a]pyrido[4,3-d]pyrimidine-3-carboxamide] | 6.00 to 8.00 | ++ (Cisplatin sensitization value >0.02 μM but <0.2 μM)
10 | COc1ncncc1NC(=O)c1c(N)nn2cc3c(nc12)CCN(C1COC1)C3 [Compound I-27, 2-amino-N-(4-methoxypyrimidin-5-yl)-7-(oxetan-3-yl)-5,6,7,8-tetrahydropyrazolo[1,5-a]pyrido[4,3-d]pyrimidine-3-carboxamide] | 6.00 to 8.00 | ++ (Cisplatin sensitization value >0.02 μM but <0.2 μM)
11 | Nc1nn2cc3c(nc2c1C(=O)Nc1cncnc1C1CC1)CCN(C1COC1)C3 [Compound I-26, 2-amino-N-(4-cyclopropylpyrimidin-5-yl)-7-(oxetan-3-yl)-5,6,7,8-tetrahydropyrazolo[1,5-a]pyrido[4,3-d]pyrimidine-3-carboxamide] | 5.30 to 6.00 | + (Cisplatin sensitization value >0.2 μM but <5 μM)
12 | COc1ccncc1NC(=O)c1c(N)nn2cc3c(nc12)CCNC3 [Compound I-2, 2-amino-N-(4-methoxypyridin-3-yl)-5,6,7,8-tetrahydropyrazolo[1,5-a]pyrido[4,3-d]pyrimidine-3-carboxamide] | 6.00 to 8.00 | ++ (Cisplatin sensitization value >0.02 μM but <0.2 μM)
13 | COc1cc(Cl)ncc1NC(=O)c1c(N)nn2cc3c(nc12)CCNC3 [Compound I-6, 2-amino-N-(6-chloro-4-methoxypyridin-3-yl)-5,6,7,8-tetrahydropyrazolo[1,5-a]pyrido[4,3-d]pyrimidine-3-carboxamide] | 6.00 to 8.00 | ++ (Cisplatin sensitization value >0.02 μM but <0.2 μM)
